Test results as given in patent US20220401564A1 (DANA-FARBER CANCER INSTITUTE, INC., priority 2019, published 2022).
“Also recorded” adds a separate entry of the source.

Biological target: T1, HDAC6 (Homo sapiens, UniProt Q9UBN7)
T1 sequence (Q9UBN7 1-1215): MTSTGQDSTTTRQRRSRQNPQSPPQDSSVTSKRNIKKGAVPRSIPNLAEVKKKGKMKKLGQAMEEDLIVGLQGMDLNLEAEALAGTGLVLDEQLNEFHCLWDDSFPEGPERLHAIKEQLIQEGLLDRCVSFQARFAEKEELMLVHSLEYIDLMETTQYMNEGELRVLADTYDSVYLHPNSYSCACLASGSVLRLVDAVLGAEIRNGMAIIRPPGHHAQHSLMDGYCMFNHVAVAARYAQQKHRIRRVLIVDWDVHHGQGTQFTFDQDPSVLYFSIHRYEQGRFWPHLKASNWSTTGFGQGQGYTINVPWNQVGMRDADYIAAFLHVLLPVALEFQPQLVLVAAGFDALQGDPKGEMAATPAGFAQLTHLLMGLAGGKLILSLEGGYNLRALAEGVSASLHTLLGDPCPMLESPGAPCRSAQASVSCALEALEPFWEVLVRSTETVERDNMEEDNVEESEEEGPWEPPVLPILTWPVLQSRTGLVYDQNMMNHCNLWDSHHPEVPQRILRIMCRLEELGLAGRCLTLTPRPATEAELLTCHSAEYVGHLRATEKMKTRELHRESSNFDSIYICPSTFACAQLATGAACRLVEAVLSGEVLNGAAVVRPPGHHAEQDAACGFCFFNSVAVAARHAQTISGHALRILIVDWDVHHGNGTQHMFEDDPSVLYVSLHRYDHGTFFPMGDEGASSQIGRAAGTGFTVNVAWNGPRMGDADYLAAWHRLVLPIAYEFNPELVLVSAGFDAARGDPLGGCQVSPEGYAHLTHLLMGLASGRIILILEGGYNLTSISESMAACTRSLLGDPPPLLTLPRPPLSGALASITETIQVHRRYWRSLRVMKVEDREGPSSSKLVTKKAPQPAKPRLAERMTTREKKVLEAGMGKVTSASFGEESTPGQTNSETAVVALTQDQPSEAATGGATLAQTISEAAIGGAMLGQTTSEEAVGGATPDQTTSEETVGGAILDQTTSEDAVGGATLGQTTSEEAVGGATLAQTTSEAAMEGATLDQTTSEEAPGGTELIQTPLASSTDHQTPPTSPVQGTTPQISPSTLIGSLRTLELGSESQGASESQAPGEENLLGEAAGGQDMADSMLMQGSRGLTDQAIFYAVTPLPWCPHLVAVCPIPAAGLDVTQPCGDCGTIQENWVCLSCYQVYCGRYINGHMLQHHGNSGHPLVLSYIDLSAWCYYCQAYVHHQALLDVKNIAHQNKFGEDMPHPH
Experiment: Change in cellular protein abundance (TMT proteomics) in Kelly cells
Assay type: cell-based
Set-up: relative change in relative protein abundance with treatment of Kelly cells; endogenous in cells; host or cells: Kelly cells
Details: FIG. 3A

## Cc1ncsc1-c1ccc(CNC(=O)[C@@H]2C[C@@H](O)CN2C(=O)[C@@H](NC(=O)C2(F)CC2)C(C)(C)C)c(OCCCCCN(CCc2c[nH]c3ccccc23)Cc2ccc(/C=C/C(=O)NO)cc2)c1 [Compound 7, (2S,4R)—N-(2-((5-((2-(1H-indol-3-yl)ethyl)(4-((E)-3-(hydroxyamino)-3-oxoprop-1-en-1-yl)benzyl)amino)pentyl)oxy)-4-(4-methylthiazol-5-yl)benzyl)-1-((S)-2-(1-fluorocyclopropane-1-carboxamido)-3,3-dimethylbutanoyl)-4-hydroxypyrrolidine-2-carboxamide]
  HDAC6 protein levels, relative protein abundance compared to DMSO control: promote degradation; also recorded: significant and selective reduction
